Reference: EP0194571A1, “Heterocyclic disulfides, process for their preparation and pharmaceutical preparations containing them” (HOECHST AKTIENGESELLSCHAFT, priority 1985, dated 1986)

Key:
[1] = test system: Maus-Peritonealmakrophagen; test: Activation of mononuclear phagocytes: release of lysosomal hydrolases (exocytosis) by peritoneal macrophages from treated mice; assay type: in vivo, NMRI-Mäuse; settings: for N-Ac-Glu: N-Acetyl-ß-D-Glucosaminidase in culture supernatant; for ß-Gal: ß-Galactosidase in culture supernatant; for ß-Glu: ß-Glucuronidase in culture supernatant
Experimental: (§1) Hier wurde der Einfluß der nach Ausführungsbeispiel 8 erhaltenen Prüfsubstanz auf die Stimulation von Peritonealmakrophagen bei 6- 8 Wochen alten NMRI-Mäusen untersucht. Mäuseweibchen erhielten auf parenteralem oder oralem Wege die Prüfsubstanz in einer Dosis von 25 mg/kg, 50 mg/kg, 100 mg/kg und 200 mg/kg. Der Kontrollgruppe wurde gepufferte Kochsalzlösung verabreicht. Drei Tage nach den Injektionen wurden die Mäuse getötet, und es wurden die Peritonealmakrophagen der Tiere auf ihren Aktivierungszustand hin untersucht. Als Maß der Makrophagenaktivierung wurde zum einen die Sekretion der lyosomalen Enzyme (ß-Galactosidase, ß-Glucuronidase, N-Acetyl-ß-D-Glucosaminidase) bestimmt. Auf der anderen Seite konnte in vergleichbaren Makrophagenkulturen die Pinozytose durch die Aufnahme von kolloidalem Gold (^19^8Au) - wie sie dem Fachmann bekannt ist - untersucht werden. Die Höhe des oxidativen Stoffwechsels bei Makrophagen gilt als ein weiteres Maß für ihren Aktivierungszustand. Gemessen wird diese Aktivität unter Zuhilfenahme des Biolumaten durch Bestimmung der Chemolumineszenz.
(§2) Zu diesem Zweck wurden entweder in Petrischalen von 30 mm Durchmesser 3 x 10^6 Makrophagen mit 1 ml TC 199-Kulturmedium oder aber 10^6 Makrophagen mit 100 µl in Rundbogen-Polyäthylen-Röhrchen (zur Bestimmung der Chemolumineszenz) bei 5 % G02 und 37°C kultiviert.
(§3) Nach einstündiger Bebrütung wurden die Kulturen gewaschen, um schwimmende Zellen zu entfernen. Die Chemolumineszenz (Röhrchenkultur) wurde dann direkt bestimmt, während die Petrischalen erneut 24 Stunden bei 37°C bebrütet wurden und danach die Enzym- und Pinozytoseaktivität in den Kulturen bestimmt wurde. Es wurden die nachstehenden Ergebnisse erzielt.
Aus der Tabelle 3 ist zu entnehmen, daß Makrophagen von Kontrollmäusen nur geringe Mengen an lysosomalen Enzymen (ß-Glucuronidase, ß-Galactosidase, N-Acetyl-ß-D-Glucosaminidase) in den Kulturüberstand abgeben. Mononukleare Phagozyten von Mäusen, die parenteral oder oral mit der Prüfsubstanz 72 Stunden behandelt wurde, sezernieren die o.a. sauren Hydrolasen (ß-Glu, ß-Gal, N-Ac-Glu) deutlich mehr und weisen damit eine Dosiswirkungskurve auf, die bei allen gemessenen Enzymen eine Überlegenheit gegenüber den Kontrollen erkennen läßt. Es ist ersichtlich, daß die Prüfsubstanz eine stimulierende Wirkung auf die Makrophagenaktivität besitzt und zur Erhöhung der Enzymfreisetzung beiträgt.
Wie im Experiment 2 beschrieben, wurden NMRI-Mäuse mit den erfindungsgemäßen Verbindungen behandelt.
Als Test zur Erfassung der Immunstimulation wurde die Funktion der Makrophagen (Chemolumineszenz und Enzymaktivität) überprüft.
Tabelle 8 zeigt die relative Wirksamkeit der Prüfsubstanzen bezogen auf die Verbindung aus Beispiel 8, deren maximale Aktivierung (Differenz zwischen Kontrolle und Stimulation) 100 % entspricht. Der Tabelle ist zu entnehmen, daß im Vergleich zu Makrophagen aus unbehandelten Tieren, diese Zellen auch durch alle Prüfsubstanzen in ihrer Chemolumineszenzreaktion stark stimuliert und in ihrem Gehalt an lysosomalen Enzymen deutlich erhöht waren.

Candida albicans = test: Resistance against Candida albicans infection, prophylactic treatment, survival time; assay type: in vivo, Balb/c-Mäuse; settings: 2 x 60 mg/kg/Tag intraperitoneal over 4 days, i.v. infection 24 h later with 5 x 10^5 CFU/Maus, control 9,7 Tagen
Experimental: Balb/c-Mäuse wurden über 4 Tage in einer Dosierung von 2 x 60 mg/kg/Tag intraperitoneal mit der Prüfsubstanz (Verbindung nach Ausführungsbeispiel 8) behandelt. 24 Stunden nach der letzten Gabe der Prüfsubstanz werden diese Tiere und die Kontrolltiere, denen physiologische Kochsalzlösung in gleichen Volumina und Zeitabständen verabreicht worden war, mit Candida albicans intravenös infiziert (5 x 10^5 CFU/Maus). Aus der Absterberate nach der Infektion lassen sich entsprechend die mittleren Überlebenszeiten berechnen. Die Tiere der Kontrollgruppe sterben zu 50 % nach 9,7 Tagen, die mit der Prüfsubstanz behandelte Gruppe zeigte eine mittlere Überlebenszeit von 16,1 Tagen. In dem gewählten Applikationsschema mit den entsprechenden Dosierungen (prophylaktische Verabreichung) induziert die Prüfsubstanz eine signifikante Erhöhung der Resistenz der Balb/c-Maus gegen Candida albicans.
Wie in Experiment 3a beschrieben, wurden Balb/c-Mäuse mit den erfindungsgemäßen Verbindungen behandelt.
Wie Tabelle 9 zeigt, steigt die mittlere Überlebenszeit der Mäuse nach C. albicans Infektion, verglichen mit einer unbehandelten Kontrollgruppe, signifikant an.

B16-Melanom = test: Tumour defence against B16 melanoma (lung metastases after removal of primary tumour), survival time; assay type: in vivo, C57B1/6 Mäusen; settings: control 26 Tagen
Experimental: Bei weiblichen C57B1/6 Mäusen (10 Tiere/Gruppe) mit einem Gewicht von 18 - 20 g wurde mit 2 x 10^5 lebenden B16-Melanomzellen ein Primärtumorwachstum induziert. Nach Ausprägung einer bestimmten Tumorgröße (0.65 cm im Durchmesser) wurde der Primärtumor entfernt. Die unbehandelten Tiere starben dann an Metastasen in der Lunge. Nach der Tumorinduktion wurden die Tiere an den Tagen 3, 5, 7, 9, 11, und 13 nach Amputation des Primärtumors mit 50, 100 und 200 mg/kg der nach Beispiel 8 erhaltenen Prüfsubstanz intraperitoneal behandelt. Aus der Absterberate nach Amputation des Primärtumors durch die Entwicklung von Lungenmetastasen lassen sich entsprechend die mittleren ffberlebenszeiten berechnen. Danach sterben die Tiere der Kontrollgruppe zu 50 % nach 26 Tagen. Die mit der Prüfsubstanz behandelten Gruppen zeigten (vgl. Tabelle 10) mit den entsprechenden Dosierungen eine signifikante Erhöhung der mittleren Überlebenszeit auf 43, 40 und 35 Lage.

[2] = test system: Maus-Peritonealmakrophagen; test: Pinocytosis of colloidal gold (198Au) by peritoneal macrophages from treated mice; assay type: in vivo, NMRI-Mäuse; settings: uptake of colloidal 198Au
Experimental: as §1, §2, §3
Die quantitative Bestimmung der Pinozytoseaktivität bei mononukleären Phagozyten wurde nach der Methode von Davies et al. durchgeführt (Davies, P. Allison, A.C. und Haswell, A.D.; Biochem. Biophys. Res. Com. 52, 627, 1973). Dazu wurde radioaktives, kolloidales Gold (^198Au) mit einer Partikelgröße von 20 nm und einer spezifischen Aktivität von 4-12 mCl/mg Au benutzt. Die Ergebnisse in Tabelle 4 veranschaulichen den Effekt der nach Beispiel 8 erhaltenen Prüfsubstanz auf die Endozytoseleistung. Die Pinozytose von kolloidalem Gold (^19^8Au) durch Maus-Peritonealmakrophagen von mit der erfindungsgemäßen Verbindung behandelten Tieren ist im Vergleich mit den Makrophagen von unbehandelten Tieren signifikant und dosisabhängig erhöht.

## Cc1nc(SSc2nc(C)c(CC(=O)O)s2)sc1CC(=O)O [Beispiel 8, Bis-(5-Carboxymethyl-4-methyl-thiazol-2-yl)-disulfid]
[1]; 1 x 25 mg/kg i.p.
  N-Ac-Glu: 2786 mU/ml
  ß-Gal: 2584 mU/ml
  ß-Glu: 1001 mU/ml
[1]; 1 x 25 mg/kg p.o.
  N-Ac-Glu: 1947 mU/ml
  ß-Gal: 4917 mU/ml
  ß-Glu: 897 mU/ml
[1]; 1 x 50 mg/kg i.p.
  N-Ac-Glu: 3315 mU/ml
  ß-Gal: 11058 mU/ml
  ß-Glu: 1370 mU/ml
[1]; 1 x 50 mg/kg p.o.
  N-Ac-Glu: 2862 mU/ml
  ß-Gal: 9179 mU/ml
  ß-Glu: 1133 mU/ml
[1]; 1 x 100 mg/kg i.p.
  N-Ac-Glu: 4305 mU/ml
  ß-Gal: 17596 mU/ml
  ß-Glu: 1791 mU/ml
[1]; 1 x 100 mg/kg p.o.
  N-Ac-Glu: 3676 mU/ml
  ß-Gal: 13195 mU/ml
  ß-Glu: 1593 mU/ml
[1]; 1 x 200 mg/kg i.p.
  N-Ac-Glu: 6548 mU/ml
  ß-Gal: 22351 mU/ml
  ß-Glu: 2136 mU/ml
[1]; 1 x 200 mg/kg p.o.
  N-Ac-Glu: 5621 mU/ml
  ß-Gal: 17357 mU/ml
  ß-Glu: 1886 mU/ml
[1]; lysosomal enzyme activity, relative to maximal activation by compound of Beispiel 8 = 100 %, 100 mg/kg i.p.
  Makrophagenaktivität Exozytose: 100%
Candida albicans
  mittlere Überlebenszeit: 16,1 Tagen
B16-Melanom; 50 mg/kg intraperitoneal on days 3, 5, 7, 9, 11, 13 after amputation of primary tumour
  mittlere Überlebenszeit: 43 days
B16-Melanom; 100 mg/kg intraperitoneal on days 3, 5, 7, 9, 11, 13 after amputation of primary tumour
  mittlere Überlebenszeit: 40 days
B16-Melanom; 200 mg/kg intraperitoneal on days 3, 5, 7, 9, 11, 13 after amputation of primary tumour
  mittlere Überlebenszeit: 35 days
[2]; 1 x 25 mg/kg intraperitoneal
  Pinozytoseleistung von Mausmakrophagen: 0,341 " " x 10^3 cpm
[2]; 1 x 25 mg/kg oral
  Pinozytoseleistung von Mausmakrophagen: 0,272 " " x 10^3 cpm
[2]; 1 x 50 mg/kg intraperitoneal
  Pinozytoseleistung von Mausmakrophagen: 0,396 " " x 10^3 cpm
[2]; 1 x 50 mg/kg oral
  Pinozytoseleistung von Mausmakrophagen: 0,358 " " x 10^3 cpm
[2]; 1 x 100 mg/kg intraperitoneal
  Pinozytoseleistung von Mausmakrophagen: 0,462 " " x 10^3 cpm
[2]; 1 x 100 mg/kg oral
  Pinozytoseleistung von Mausmakrophagen: 0,416 " " x 10^3 cpm
[2]; 1 x 200 mg/kg intraperitoneal
  Pinozytoseleistung von Mausmakrophagen: 0,587 " " x 10^3 cpm
[2]; 1 x 200 mg/kg oral
  Pinozytoseleistung von Mausmakrophagen: 0,506 " " x 10^3 cpm
